This is an account of results in PubChem BioAssay AID2060899 (Molecular Pharmacology Branch, DTP, NCI, 2025).

In the experiment the test system is 565726-208-R1-J5-PDC complex spheroids, growth inhibition. Put plainly: Anticancer human tumor 565726-208-R1-J5-PDC patient-derived pancreatic adenocarcinoma cell line growth inhibition [RAS]. The settings on record: for viability, T/C: stronger effect = lower value. An outline of the steps:
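Tumour cells grown as complex spheroids with HUVEC endothelial cells and mesenchymal stem cells, treated with RAS pathway inhibitor combinations. Each agent spans half-log steps from near clinical Cmax, or 10 microM where Cmax is unknown.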

Where [1] appears, read: curve of first compound, second compound 0.0316 µM.
The mark [2] stands for this setting: curve of first compound, second compound 0.1 µM.
The mark [3] stands for this setting: curve of first compound, second compound 0.316 µM.
[4] abbreviates: curve of first compound, second compound 1 µM.
[5] abbreviates: second compound 0.0316 µM, first compound 0.0316 µM.
Where [6] appears, read: second compound 0.0316 µM, first compound 0.1 µM.
Setting [7] is: second compound 0.0316 µM, first compound 0.316 µM.
Where [8] appears, read: second compound 0.0316 µM, first compound 1 µM.
Setting [9] is: second compound 0.0316 µM, first compound 3.16 µM.
Setting [10] is: second compound 0.0316 µM, first compound 10 µM.
Setting [11] is: second compound 0.1 µM, first compound 0.0316 µM.
Setting [12] is: second compound 0.1 µM, first compound 0.1 µM.
Where [13] appears, read: second compound 0.1 µM, first compound 0.316 µM.
The mark [14] stands for this setting: second compound 0.1 µM, first compound 1 µM.
Where [15] appears, read: second compound 0.1 µM, first compound 3.16 µM.
Setting [16] is: second compound 0.1 µM, first compound 10 µM.
The mark [17] stands for this setting: second compound 0.316 µM, first compound 0.0316 µM.
Where [18] appears, read: second compound 0.316 µM, first compound 0.1 µM.
[19] abbreviates: second compound 0.316 µM, first compound 0.316 µM.
[20] abbreviates: second compound 0.316 µM, first compound 1 µM.
The mark [21] stands for this setting: second compound 0.316 µM, first compound 3.16 µM.
Where [22] appears, read: second compound 0.316 µM, first compound 10 µM.
[23] abbreviates: second compound 1 µM, first compound 0.0316 µM.
The mark [24] stands for this setting: second compound 1 µM, first compound 0.1 µM.
The mark [25] stands for this setting: second compound 1 µM, first compound 0.316 µM.
The mark [26] stands for this setting: second compound 1 µM, first compound 1 µM.
The mark [27] stands for this setting: second compound 1 µM, first compound 3.16 µM.
[28] abbreviates: second compound 1 µM, first compound 10 µM.

pIC50: −log10 of the molar value.
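Further: spheroids exposed to compounds for seven days before readout.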
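Wherever viability, T/C is given: 100% = DMSO vehicle control viability.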

As for `CC(C)NCC(C(=O)N1CCN(c2ncnc3c2C(C)CC3O)CC1)c1ccc(Cl)cc1` (centres undefined) + C#Cc1c(F)ccc2cc(O)cc(-c3ncc4c(N5CC6CCC(C5)N6)nc(OCC56CCCN5CC(F)C6)nc4c3F)c12, the pIC50 is < 5.00 under setting [1]; < 5.00 under setting [2]; < 5.00 under setting [3]; < 5.00 under setting [4]; 6.33 (curve of first compound, second compound 3.16 µM); 5.92 (curve of first compound, second compound 10 µM). For the same molecule, the viability, T/C is, setting by setting: under setting [5], 85.7%; under setting [6], 129%; under setting [7], 96%; under setting [8], 76%; under setting [9], 80.2%; under setting [10], 91.4%. In addition, the viability, T/C by setting is: under setting [11], 108%; under setting [12], 114%; under setting [13], 80.3%; under setting [14], 77.3%; under setting [15], 88%; under setting [16], 86%. Further, the viability, T/C is 104% under setting [17]; 117% under setting [18]; 78.1% under setting [19]; 84.9% under setting [20]; 71.9% under setting [21]; 80.5% under setting [22]. The viability, T/C reads like this: under setting [23], 109%; under setting [24], 125%; under setting [25], 76.5%; under setting [26], 59.5%; under setting [27], 63.4%; under setting [28], 52.5%. Also, the viability, T/C reads like this: (second compound 3.16 µM, first compound 0.0316 µM) 101%; (second compound 3.16 µM, first compound 0.1 µM) 83.8%; (second compound 3.16 µM, first compound 0.316 µM) 50.7%; (second compound 3.16 µM, first compound 1 µM) 48.4%; (second compound 3.16 µM, first compound 3.16 µM) 38.5%; (second compound 3.16 µM, first compound 10 µM) 34.7%. Further, the viability, T/C (second compound 10 µM, first compound 0.0316 µM) is 67.8%; the viability, T/C (second compound 10 µM, first compound 0.1 µM) is 76.6%; the viability, T/C (second compound 10 µM, first compound 0.316 µM) is 57.6%; the viability, T/C (second compound 10 µM, first compound 1 µM) is 47.1%; the viability, T/C (second compound 10 µM, first compound 3.16 µM) is 44.5%; the viability, T/C (second compound 10 µM, first compound 10 µM) was 21.1%.
`NC1c2ccccc2OC12CCN(c1cnc3c(N4CCCc5ncccc54)n[nH]c3n1)CC2` (centres undefined): the viability, T/C reads like this: (compound 0.0316 µM) 82.2% [middle of 4 runs]; (compound 0.316 µM) 72.5% [middle of 4 runs]; (compound 1 µM) 66% [middle of 4 runs]. In addition, the pIC50 (curve of compound) is < 5.00.
Consider `CC1(O)CCCC1n1c(=O)c(C(F)F)cc2cnc(NC3CCN(S(C)(=O)=O)CC3)nc21` (centres undefined) + C=CC(=O)N1CCN(c2nc(OCC3CCCN3C)nc3c(F)c(-c4nc(N)cc(C)c4C(F)(F)F)c(Cl)cc23)C(C)C1, for which the negative logarithm of the IC50 (pIC50) was 5.37 (curve of first compound, second compound 0.00316 µM); 5.41 (curve of first compound, second compound 0.01 µM); 5.73 under setting [1]; 5.50 under setting [2]; 5.50 under setting [3]; 5.51 under setting [4]. In addition, the viability, T/C (second compound 0.00316 µM, first compound 0.0316 µM) is 84.6%; the viability, T/C (second compound 0.00316 µM, first compound 0.1 µM) was 101%; the viability, T/C (second compound 0.00316 µM, first compound 0.316 µM) is 69.9%; the viability, T/C (second compound 0.00316 µM, first compound 1 µM) was 77.8%; the viability, T/C (second compound 0.00316 µM, first compound 3.16 µM) is 67.8%; the viability, T/C (second compound 0.00316 µM, first compound 10 µM) is 7.33%. Further, the viability, T/C by setting is: (second compound 0.01 µM, first compound 0.0316 µM) 111%; (second compound 0.01 µM, first compound 0.1 µM) 116%; (second compound 0.01 µM, first compound 0.316 µM) 71.8%; (second compound 0.01 µM, first compound 1 µM) 78.2%; (second compound 0.01 µM, first compound 3.16 µM) 73.2%; (second compound 0.01 µM, first compound 10 µM) 8.22%. Besides, the viability, T/C runs as follows: under setting [5], 122%; under setting [6], 119%; under setting [7], 61.8%; under setting [8], 68.8%; under setting [9], 59.5%; under setting [10], 4.81%. In addition, the viability, T/C runs as follows: under setting [11], 117%; under setting [12], 116%; under setting [13], 63.8%; under setting [14], 73.9%; under setting [15], 71.2%; under setting [16], 8.5%. Besides, the viability, T/C is 111% under setting [17]; 116% under setting [18]; 63% under setting [19]; 77.1% under setting [20]; 64.3% under setting [21]; 7.59% under setting [22]. The viability, T/C runs as follows: under setting [23], 122%; under setting [24], 112%; under setting [25], 73.5%; under setting [26], 89%; under setting [27], 53%; under setting [28], 6.97%.
As for `CCc1c2c(nc3ccc(O)cc13)-c1cc3c(c(=O)n1C2)COC(=O)[C@]3(O)CC`, the viability, T/C was 77.2% [middle of 4 runs] (compound 0.000949 µM); 34.4% [middle of 4 runs] (compound 0.00949 µM); 19.3% [middle of 4 runs] (compound 0.03 µM); 12.7% [middle of 4 runs] (compound 0.0949 µM); 7.31% [middle of 4 runs] (compound 0.3 µM). Besides, for the setting “curve of compound”, the IC50 is 2.78 nM [middle of 4 runs].

The term pIC50 denotes −log10 of the IC50, conventionally taken in molar units. For orientation: viability, T/C means the ratio of treated to control. As usually defined, the IC50 is the point on the concentration scale where inhibition reaches its midpoint.
